Assay results taken from US12655144B2, “Method for producing heterocyclic compound” (TAKEDA PHARMACEUTICAL COMPANY LIMITED, priority 2020, dated 2026).

Key:
[1] = system: OCI-Ly3 cells; test: Measurement of growth inhibitory activity using OCI-Ly3 cells; type: cell-based; conditions: Homo sapiens, 144 h, 3 μM compound, 6 days, Cell Titer-Glo, read-out: Cell growth inhibition rate (%) at 3 μM compound
Method: Measurement of Growth Inhibitory Activity Using OCI-Ly3 Cells
OCI-Ly3 cells were seeded in a cell culture medium IMDM (Fujifilm Wako Pure Chemical Corporation) containing 20% FCS (fetal calf serum, Thermo Fisher Scientific) and monothioglycerol (Fujifilm Wako Pure Chemical Corporation) so as to be at 1.25×10^3 cells/well on a 96-well plate. […] Subsequently, the luminescence value was measured with Envision (PerkinElmer) on the day of seeding. […] Subsequently, the luminescence value was measured in the same manner. The inhibition rate (%) of the test compound on OCI-Ly3 cell growth was calculated by the following formula. Cell growth inhibition rate (%)=(1−(Luminescent value on day 6 of test compound treatment−Luminescent value before test compound treatment)/(Luminescent value on day 6 without compound addition−Luminescent value before compound treatment))×100

[2] = system: OCI-Ly3 subcutaneously transplanted tumor; test: Antitumor effect on OCI-Ly3 cell-bearing cancer model; type: in vivo, NOG female mice; conditions: 10 mg/kg orally twice daily for 3 weeks; average tumor volume increase ratio vs control; NOG mice bearing OCI-Ly3
Method: Antitumor Effect on OCI-Ly3 Cell-Bearing Cancer Model Human diffuse large-cell B-cell lymphoma cells OCI-Ly3 (DSMZ, German Collection of Microorganisms and Cell Cultures) were suspended in a Matrigel (BD Biosciences):HBSS (Thermo Fisher Scientific)=1:1 solution, and 1×10^7 cells were transplanted subcutaneously into the abdomen of NOG female mice (CLEA Japan, Inc.). The tumor diameter of the engrafted tumor was measured, and the tumor volume was calculated by the following formula. Tumor volume=major axis×minor axis×minor axis×(1/2) Individuals with the engrafted tumor having a tumor volume of about 120 mm^3 were selected, and 6 animals per group were used in the experiment. A suspension of the test compound in 0.5% methylcellulose solution (Fujifilm Wako Pure Chemical Corporation) was orally administered at a dose of 10 mg/kg (10 mL/kg) twice daily for 3 weeks. The tumor volume was measured on the day before the start of administration and every 3 to 4 days over time, and the tumor diameter was finally measured the day after the end of administration for 21 days to calculate the tumor volume. The tumor growth of the test compound-administered group compared with the control-administered group was calculated by the following formula as an average tumor volume increase ratio T/C. […]

SMILES	inhibition at 3 µM [1]	T/C (%) [2]
CO[C@@H](C)c1c(NC(=O)Nc2cnc(-n3nccn3)c(C(F)(F)F)c2)cnc2ccc(Cl)nc12 [Compound X1, (S)—N-(6-Chloro-4-(1-methoxyethyl)-1,5-naphthyridine-3-yl)-N′-(6-(2H-1,2,3-triazole-2-yl)-5-(trifluoromethyl)pyridine-3-yl)urea]	97%	2.0%
CO[C@@H](C)c1c(NC(=O)Nc2cnc(-n3nccn3)c(C(F)(F)F)c2)cnc2ccc(C)nc12 [Compound X2, (S)—N-(4-(1-methoxyethyl)-6-methyl-1,5-naphthyridine-3-yl)-N′-(6-(2H-1,2,3-triazole-2-yl)-5-(trifluoromethyl)pyridine-3-yl)urea]	99%	38.7%
